Measured values from US7579432B2, “Cyclic peptides as G-protein-coupled receptor antagonists” (Promics Pty Limited, priority 2001, dated 2009).
Bridge positions count the residues as written; N and C are the ends. Square brackets hold non-standard residues; d marks the D form. Peptide text beside a SMILES is read from it. * marks the point of attachment. Hydrocinnamoyl = O=C(CCc1ccccc1)*; dCha = N[C@H](CC1CCCCC1)C(=O)O; Orn = NCCC[C@H](N)C(=O)O

Test system: neutropenia caused by i.v. LPS
Test: LPS-induced neutropenia (endotoxaemia model)
Type: in vivo, rat
Conditions: topical in 50% DMSO/50% H2O, 60 min before LPS 1 mg/kg i.v.
Protocol: The in vivo pharmacological properties of cyclic antagonists were examined following topical dermal administration. A model of endotoxaemia was used, in which 1 mg/kg Escherichia coli […] (LPS; serotype 55:B5, Sigma, USA, stored at 100 mg ml^−1 in dH2O, 4° C.), was injected i.v into a rat, resulting in acute changes in circulating PMN levels and blood pressure. These parameters were measured in the presence and absence of C5aR antagonists (1 mg/kg i.v or 50 mg/kg/rat topically). […] Female Wistar rats weighing between 200-250 g were used for in vivo testing of all C5a receptor antagonists. Rats were anaesthetized using the procedure described above, and transferred on to a heating pad to ensure that body temperature was maintained throughout the experiment. A catheter was inserted in the femoral vein, secured with a suture and flushed with 100 μL of heparinised saline. […] All agents infused i.v were injected over a 2 min period, and were followed with a subsequent injection of 100 μL of saline to ensure complete delivery of the drug. Whole blood samples (0.1 mL) were collected from the tail vein at the time of drug and LPS or C5a administration. Samples were collected at −15, 0, 5, 10, 15, 30, 60, 90, 120 and 150 min relative to the injection of LPS (zero time), and placed in tubes containing heparin (500 Units/mL). To isolate PMNs, 100 μL of blood was layered on to 200 μL of Histopaque 1077 (Sigma U.S.A.) solution and centrifuged at 400×g for 30 min min at room temperature (25° C.). The supernatant layer of platelet-rich plasma, the monocyte and lymphocyte interface and the separation layer of Histopaque were removed and discarded, leaving the PMN and red blood-cell rich layer. […] The number of PMNs was counted on a haemocytometer. The number of cells at each time point was calculated as a percentage of the total number of cells at time zero, prior to complement challenge or LPS. […] Circulating PMN levels were monitored for 150 min following LPS injection, and the percentage change in PMN levels from zero time, when LPS was injected, was calculated.

Compound | neutropenia response to i.v. LPS
N=C(N)NCCC[C@@H]1NC(=O)[C@H](Cc2c[nH]c3ccccc23)NC(=O)[C@@H](CC2CCCCC2)NC(=O)[C@@H]2CCCN2C(=O)[C@@H](NC(=O)CCc2ccccc2)CCCNC1=O [Compound 17, HC[OP-dCha-WR]] (Hydrocinnamoyl-[Orn]P[dCha]WR; lactam 1-C) | inhibited the neutropenia response
CC(=O)N[C@@H](Cc1ccccc1)C(=O)N[C@H]1CCCNC(=O)[C@H](CCCNC(N)=O)NC(=O)[C@H](Cc2c[nH]c3ccccc23)NC(=O)[C@@H](CC2CCCCC2)NC(=O)[C@@H]2CCCN2C1=O [Compound 45, AcF[OPdChaW-Cit]] | inhibited the neutropenia response
